System: vancomycin monoclonal antibody
Experiment: Cross-reaction rate measurement of the test strip of Embodiment 1 (interference testing in human serum containing 20 μg/mL vancomycin)
Type: binding, Balb/c mouse
Procedure: 20 ul of sample is accurately pipetted into 180 ul of sample diluent and mixed fully.
80 uL of sample solution to be tested is accurately pipetted into a test strip loading well with a micropipette, and reaction is carried out at 20° C. for 15 min. The test strip is inserted into a load carrier of a fluorescence detector, an item to be tested is selected by touching a display screen, a “Detection Start” button is pressed, the fluorescence detector automatically scans the test strip, and a test result is read through the display screen of an instrument or printed.
After the test is completed, the instrument obtains the ratio of the time-resolved fluorescent intensity of the detection area on the test strip to the time-resolved fluorescent intensity of the quality control area, and calculates the content of vancomycin in the sample to be tested according to the following formula. Y=(A−D)/[1+(x/C)^B]+D
Several vancomycin analogs and common drugs are selected for interference testing.

[1] = test concentration 1,000 μg/mL, added to human serum with vancomycin 20 μg/mL

With `CN[C@H](CC(C)C)C(=O)N[C@H]1C(=O)N[C@@H](CC(N)=O)C(=O)N[C@H]2C(=O)N[C@H]3C(=O)N[C@H](C(=O)N[C@H](C(=O)O)c4cc(O)cc(O)c4-c4cc3ccc4O)[C@H](O)c3ccc(c(Cl)c3)Oc3cc2cc(c3O[C@@H]2OC(CO)[C@@H](O)[C@H](O)[C@H]2O[C@H]2C[C@](C)(N)[C@H](O)[C@H](C)O2)Oc2ccc(cc2Cl)[C@H]1O.Cl` (stereo partly drawn) [Vancomycin] the Cross reaction rate (test concentration 20 μg/mL, human serum sample) was 100%.

`C[C@H]1O[C@@H](O[C@H]2[C@@H](O)C[C@H](O[C@H]3[C@@H](O)C[C@H](O[C@H]4CC[C@@]5(C)[C@H](CC[C@@H]6[C@@H]5C[C@@H](O)[C@]5(C)[C@@H](C7=CC(=O)OC7)CC[C@]65O)C4)O[C@@H]3C)O[C@@H]2C)C[C@H](O)[C@@H]1O` [Digoxin] was tested, and the Cross reaction rate [1] was <0.001%.

`NC(=O)N1c2ccccc2C=Cc2ccccc21` [Carbamazepine] was tested, and the Cross reaction rate [1] was <0.001%.

For `CCCC(CCC)C(=O)O` [Valproic acid], the Cross reaction rate [1] was <0.001%.

In the case of `O=C1NC(=O)C(c2ccccc2)(c2ccccc2)N1` [Phenytoin], the Cross reaction rate [1] is reported as <0.001%.

`Cn1c(=O)c2[nH]cnc2n(C)c1=O` [Theophylline] was tested, and the Cross reaction rate [1] was <0.001%.

For `CC(C)C[C@@H](N)C(=O)N[C@H]1C(=O)N[C@@H](CC(N)=O)C(=O)N[C@H]2C(=O)N[C@H]3C(=O)N[C@H](C(=O)N[C@H](C(=O)O)c4cc(O)cc(O)c4-c4cc3ccc4O)[C@H](O)c3ccc(c(Cl)c3)Oc3cc2cc(c3O[C@@H]2O[C@H](CO)[C@@H](O)[C@H](O)[C@H]2O[C@H]2C[C@](C)(N)[C@H](O)[C@H](C)O2)Oc2ccc(cc2Cl)[C@H]1O` [Norvancomycin], the Cross reaction rate (test concentration 100 μg/mL, added to human serum with vancomycin 20 μg/mL) was <1%.

In the case of `CC(=O)Oc1ccccc1C(=O)O` [Aspirin], the Cross reaction rate [1] is reported as <0.001%.

In the case of `O=C(O)c1ccccc1O` [Salicylic acid], the Cross reaction rate [1] is reported as <0.001%.

Reference: patent publication US11162959B2, “Time-resolved fluorescent immunochromatographic test strip for detecting vancomycin as well as preparation method and application thereof” (BEIJING DIAGREAT BIOTECHNOLOGIES CO., LTD., priority 2019, dated 2021)
